Results taken from BindingDB's records for doi:10.1021/jm00164a020 (Merck Sharp & Dohme Research Laboratories, 1990).

What follows are compounds tested against Gastrin/cholecystokinin type B receptor (Cavia porcellus) (assay: Inhibition of binding of [125I]gastrin to Cholecystokinin type B receptor from guinea pig gastric glands).

| SMILES | IC50 [µM] |
| --- | --- |
| O=C(O)CC[C@H](NC(=O)c1cc2ccccc2[nH]1)C(=O)N(C1CCCCC1)C1CCCCC1 | 4.1 |
| CCCCCN(CCCCC)C(=O)C(CCC(=O)N1CCCC1)NC(=O)Nc1ccc(Cl)cc1 (centres undefined) | 0.43 |
| CCCCCN(CCCCC)C(=O)[C@@H](CCC(=O)O)NC(=O)Nc1cccc(OC)c1 | 13 |
| CCCCCN(CCCCC)C(=O)C(CCC(=O)OCc1ccccc1)NC(=O)Nc1ccc(Cl)cc1 (centres undefined) | 44 |
